According to patent publication US12239627B2, “Method of treating conditions related to the PGI2 receptor” (Arena Pharmaceuticals, Inc., priority 2014, dated 2025):

Test: Phase 1 single ascending dose study with healthy subjects (adverse events)
Type: in vivo, human
Details: for No. of subjects reporting AEs / No. of subjects with AE Abdominal pain / No. of subjects with AE Cough / No. of subjects with AE Diarrhoea / No. of subjects with AE Dizziness / No. of subjects with AE Flushing / No. of subjects with AE Headache / No. of subjects with AE Jaw pain / No. of subjects with AE Muscle spasm / No. of subjects with AE Nausea / No. of subjects with AE Neck pain / No. of subjects with AE Oropharyngeal pain / No. of subjects with AE Pain in extremity / No. of subjects with AE Photophobia / No. of subjects with AE Vomiting / Number of Subjects Reporting AEs By Most Direct Relationship to Study Treatment: Definitely not related / Number of Subjects Reporting AEs By Most Direct Relationship to Study Treatment: Possibly related / Number of Subjects Reporting AEs By Most Direct Relationship to Study Treatment: Probably not related / Number of Subjects Reporting AEs By Most Direct Relationship to Study Treatment: Probably related: 6 subjects
Description: This study was a phase 1, randomized, double-blind, placebo-controlled study of four cohorts of 8 subjects each (2 subjects were assigned to receive placebo, and 6 to receive Compound 1). Each cohort was assigned to receive a single dose level of blinded study medication in an ascending dose fashion; dosing began at 0.1 mg.
All enrolled subjects received a single oral dose of study medication (Compound 1 or placebo). Dose escalation was slowed or discontinued when predefined safety criteria based on peak plasma exposure levels, blood pressure changes, or adverse events (AEs) were met. […] Two lower dose cohorts were added, in which the doses of Compound 1were 0.05 mg and 0.03 respectively.
After each cohort was dosed, the following safety parameters were monitored: vital signs, clinical laboratory tests to include serum chemistry, hematology, and urinalysis, 12-lead ECG, plasma Compound 1 concentration, and AEs. Pharmacokinetic parameters were monitored and calculated for Compound 1.

SMILES: O=C(O)COC[C@H]1CC[C@H](COC(=O)N(c2ccccc2)c2ccc(Cl)cc2)CC1 [Compound 1, 2-(((1r,4r)-4-(((4-chlorophenyl)(phenyl)carbamoyloxy)methyl)cyclohexyl)methoxy)acetic acid]
- AEs on which dose escalation was discontinued (2nd cohort, single oral dose 0.2 mg): prolonged nausea and vomiting that was severe in intensity
- Tolerability of the dose (single dose 0.1 mg, some subjects experienced nausea, vomiting, headache, and jaw pain): tolerated
- Tolerability of the dose (single dose 0.2 mg): Intolerable AEs
- No. of subjects reporting AEs (single oral dose 0.03 mg): 2 subjects
- No. of subjects with AE Abdominal pain (single oral dose 0.03 mg): 0 subjects
- No. of subjects with AE Cough (single oral dose 0.03 mg): 0 subjects
- No. of subjects with AE Diarrhoea (single oral dose 0.03 mg): 0 subjects
- No. of subjects with AE Dizziness (single oral dose 0.03 mg): 0 subjects
- No. of subjects with AE Flushing (single oral dose 0.03 mg): 0 subjects
- No. of subjects with AE Headache (single oral dose 0.03 mg): 2 subjects
- No. of subjects with AE Jaw pain (single oral dose 0.03 mg): 0 subjects
- No. of subjects with AE Muscle spasm (single oral dose 0.03 mg): 0 subjects
- No. of subjects with AE Nausea (single oral dose 0.03 mg): 0 subjects
- No. of subjects with AE Neck pain (single oral dose 0.03 mg): 0 subjects
- No. of subjects with AE Oropharyngeal pain (single oral dose 0.03 mg): 0 subjects
- No. of subjects with AE Pain in extremity (single oral dose 0.03 mg): 0 subjects
- No. of subjects with AE Photophobia (single oral dose 0.03 mg): 0 subjects
- No. of subjects with AE Vomiting (single oral dose 0.03 mg): 0 subjects
- Number of Subjects Reporting AEs By Most Direct Relationship to Study Treatment: Definitely not related (single oral dose 0.03 mg): 0 subjects
- Number of Subjects Reporting AEs By Most Direct Relationship to Study Treatment: Possibly related (single oral dose 0.03 mg): 2 subjects
- Number of Subjects Reporting AEs By Most Direct Relationship to Study Treatment: Probably not related (single oral dose 0.03 mg): 0 subjects
- Number of Subjects Reporting AEs By Most Direct Relationship to Study Treatment: Probably related (single oral dose 0.03 mg): 0 subjects
- No. of subjects reporting AEs (single oral dose 0.05 mg): 5 subjects
- No. of subjects with AE Abdominal pain (single oral dose 0.05 mg): 1 subjects
- No. of subjects with AE Cough (single oral dose 0.05 mg): 0 subjects
- No. of subjects with AE Diarrhoea (single oral dose 0.05 mg): 0 subjects
- No. of subjects with AE Dizziness (single oral dose 0.05 mg): 0 subjects
- No. of subjects with AE Flushing (single oral dose 0.05 mg): 1 subjects
- No. of subjects with AE Headache (single oral dose 0.05 mg): 5 subjects
- No. of subjects with AE Jaw pain (single oral dose 0.05 mg): 2 subjects
- No. of subjects with AE Muscle spasm (single oral dose 0.05 mg): 0 subjects
- No. of subjects with AE Nausea (single oral dose 0.05 mg): 1 subjects
- No. of subjects with AE Neck pain (single oral dose 0.05 mg): 0 subjects
- No. of subjects with AE Oropharyngeal pain (single oral dose 0.05 mg): 0 subjects
- No. of subjects with AE Pain in extremity (single oral dose 0.05 mg): 0 subjects
- No. of subjects with AE Photophobia (single oral dose 0.05 mg): 1 subjects
- No. of subjects with AE Vomiting (single oral dose 0.05 mg): 0 subjects
- Number of Subjects Reporting AEs By Most Direct Relationship to Study Treatment: Definitely not related (single oral dose 0.05 mg): 0 subjects
- Number of Subjects Reporting AEs By Most Direct Relationship to Study Treatment: Possibly related (single oral dose 0.05 mg): 5 subjects
- Number of Subjects Reporting AEs By Most Direct Relationship to Study Treatment: Probably not related (single oral dose 0.05 mg): 0 subjects
- Number of Subjects Reporting AEs By Most Direct Relationship to Study Treatment: Probably related (single oral dose 0.05 mg): 0 subjects
- No. of subjects reporting AEs (single oral dose 0.1 mg): 6 subjects
- No. of subjects with AE Abdominal pain (single oral dose 0.1 mg): 1 subjects
- No. of subjects with AE Cough (single oral dose 0.1 mg): 0 subjects
- No. of subjects with AE Diarrhoea (single oral dose 0.1 mg): 0 subjects
- No. of subjects with AE Dizziness (single oral dose 0.1 mg): 1 subjects
- No. of subjects with AE Flushing (single oral dose 0.1 mg): 1 subjects
- No. of subjects with AE Headache (single oral dose 0.1 mg): 5 subjects
- No. of subjects with AE Jaw pain (single oral dose 0.1 mg): 3 subjects
- No. of subjects with AE Muscle spasm (single oral dose 0.1 mg): 0 subjects
- No. of subjects with AE Nausea (single oral dose 0.1 mg): 2 subjects
- No. of subjects with AE Neck pain (single oral dose 0.1 mg): 1 subjects
- No. of subjects with AE Oropharyngeal pain (single oral dose 0.1 mg): 0 subjects
- No. of subjects with AE Pain in extremity (single oral dose 0.1 mg): 0 subjects
- No. of subjects with AE Photophobia (single oral dose 0.1 mg): 0 subjects
- No. of subjects with AE Vomiting (single oral dose 0.1 mg): 2 subjects
- Number of Subjects Reporting AEs By Most Direct Relationship to Study Treatment: Definitely not related (single oral dose 0.1 mg): 1 subjects
- Number of Subjects Reporting AEs By Most Direct Relationship to Study Treatment: Possibly related (single oral dose 0.1 mg): 4 subjects
- Number of Subjects Reporting AEs By Most Direct Relationship to Study Treatment: Probably not related (single oral dose 0.1 mg): 0 subjects
- Number of Subjects Reporting AEs By Most Direct Relationship to Study Treatment: Probably related (single oral dose 0.1 mg): 1 subjects
- No. of subjects reporting AEs (single oral dose 0.2 mg): 6 subjects
- No. of subjects with AE Abdominal pain (single oral dose 0.2 mg): 0 subjects
- No. of subjects with AE Cough (single oral dose 0.2 mg): 0 subjects
- No. of subjects with AE Diarrhoea (single oral dose 0.2 mg): 1 subjects
- No. of subjects with AE Dizziness (single oral dose 0.2 mg): 0 subjects
- No. of subjects with AE Flushing (single oral dose 0.2 mg): 2 subjects
- No. of subjects with AE Headache (single oral dose 0.2 mg): 5 subjects
- No. of subjects with AE Jaw pain (single oral dose 0.2 mg): 1 subjects
- No. of subjects with AE Muscle spasm (single oral dose 0.2 mg): 1 subjects
- No. of subjects with AE Nausea (single oral dose 0.2 mg): 3 subjects
- No. of subjects with AE Neck pain (single oral dose 0.2 mg): 0 subjects
- No. of subjects with AE Oropharyngeal pain (single oral dose 0.2 mg): 1 subjects
- No. of subjects with AE Pain in extremity (single oral dose 0.2 mg): 1 subjects
- No. of subjects with AE Photophobia (single oral dose 0.2 mg): 0 subjects
- No. of subjects with AE Vomiting (single oral dose 0.2 mg): 6 subjects
- Number of Subjects Reporting AEs By Most Direct Relationship to Study Treatment: Definitely not related (single oral dose 0.2 mg): 0 subjects
- Number of Subjects Reporting AEs By Most Direct Relationship to Study Treatment: Possibly related (single oral dose 0.2 mg): 0 subjects
- Number of Subjects Reporting AEs By Most Direct Relationship to Study Treatment: Probably not related (single oral dose 0.2 mg): 0 subjects
- Number of Subjects Reporting AEs By Most Direct Relationship to Study Treatment: Probably related (single oral dose 0.2 mg): 6 subjects
